Values quoted from earlier work, collected in patent US20200352795A1, “WETNESS INDICATOR WITH HARDENERS” (SAVARE' I.C. S.r.l., priority 2018, published 2020).

Conditions: for pKa: Table 1

O=C1OC2(c3cc(Br)c(O)c(Br)c3Oc3c2cc(Br)c(O)c3Br)c2c(Cl)c(Cl)c(Cl)c(Cl)c21 [Acid Phloxine B]
pKa of pH-indicator colorant: ~2.9
pKa: 2.9

O=S(=O)(O)c1ccc(N=C2C=CC(=C(c3ccc(Nc4ccc(S(=O)(=O)O)cc4)cc3)c3ccc(Nc4ccc(S(=O)(=O)O)cc4)cc3)C=C2)cc1 [Aniline Blue (also known as Methyl Blue), Aniline Blue]
pKa: 11.7

Cc1c(C2(c3cc(Br)c(O)c(Br)c3C)OS(=O)(=O)c3ccccc32)cc(Br)c(O)c1Br [Bromocresol Green Free Acid]
pKa: 4.8

Cc1cc(C2(c3cc(C)c(O)c(Br)c3)OS(=O)(=O)c3ccccc32)cc(Br)c1O [Bromocresol Purple Free Acid]
pKa of pH-indicator colorant: 6.3

O=S1(=O)OC(c2cc(Br)c(O)c(Br)c2)(c2cc(Br)c(O)c(Br)c2)c2ccccc21 [Bromophenol Blue Free Acid]
pKa of pH-indicator colorant: ~4.0
